Measured values taken from PubChem BioAssay (NCI).
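Cells were grown in 96-well plates and exposed to each compound for 48 hours at five concentrations; endpoints were interpolated linearly between bracketing concentrations, or set to the highest concentration if not reached. TGI: concentration producing complete growth inhibition.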

Assays:
Test in all cases: NCI anticancer screen, dose series, 48 h
786-0 renal = test system: 786-0 renal
A498 renal = test system: A498 renal
ACHN renal = test system: ACHN renal
CCRF-CEM leukemia = test system: CCRF-CEM leukemia
COLO 205 colon = test system: COLO 205 colon
DU-145 prostate = test system: DU-145 prostate
HCT-116 colon = test system: HCT-116 colon
HS 578T breast = test system: HS 578T breast
LOX IMVI melanoma = test system: LOX IMVI melanoma
MDA-N = test system: MDA-N
NCI-H23 lung = test system: NCI-H23 lung
NCI-H460 lung = test system: NCI-H460 lung
NCI-H522 lung = test system: NCI-H522 lung
NCI/ADR-RES ovarian = test system: NCI/ADR-RES ovarian
RXF 393 renal = test system: RXF 393 renal
SF-268 CNS = test system: SF-268 CNS
SF-295 CNS = test system: SF-295 CNS
SK-OV-3 ovarian = test system: SK-OV-3 ovarian
TK-10 renal = test system: TK-10 renal
UO-31 renal = test system: UO-31 renal

Compound: Cc1nn2c(=O)c([N+](=O)[O-])c(/C=C/c3ccccc3)nc2s1
- TGI (786-0 renal): > 100 µM
- TGI (A498 renal): 59 µM
- TGI (ACHN renal): 74.9 µM
- TGI (CCRF-CEM leukemia): 7.65 µM
- TGI (COLO 205 colon): 28.8 µM
- TGI (DU-145 prostate): > 100 µM
- TGI (HCT-116 colon): 15.4 µM
- TGI (HS 578T breast): > 100 µM
- TGI (LOX IMVI melanoma): 3.98 µM
- TGI (MDA-N): 6.72 µM
- TGI (NCI-H23 lung): > 100 µM
- TGI (NCI-H460 lung): 29 µM
- TGI (NCI-H522 lung): 12 µM
- TGI (NCI/ADR-RES ovarian): > 53 µM
- TGI (RXF 393 renal): 7.32 µM
- TGI (SF-268 CNS): > 100 µM
- TGI (SF-295 CNS): > 100 µM
- TGI (SK-OV-3 ovarian): > 40.5 µM
- TGI (TK-10 renal): 41.3 µM
- TGI (UO-31 renal): > 54 µM

Compound: Clc1cccc(Cl)c1C=NC12CC3CC(CC(C3)C1)C2
- TGI (786-0 renal): > 10 µM
- TGI (A498 renal): > 10 µM
- TGI (ACHN renal): > 10 µM
- TGI (CCRF-CEM leukemia): > 10 µM
- TGI (COLO 205 colon): > 10 µM
- TGI (DU-145 prostate): > 10 µM
- TGI (HCT-116 colon): > 10 µM
- TGI (HS 578T breast): > 10 µM
- TGI (LOX IMVI melanoma): > 10 µM
- TGI (MDA-N): > 10 µM
- TGI (NCI-H23 lung): > 10 µM
- TGI (NCI-H460 lung): > 10 µM
- TGI (NCI-H522 lung): > 10 µM
- TGI (NCI/ADR-RES ovarian): > 10 µM
- TGI (RXF 393 renal): > 10 µM
- TGI (SF-268 CNS): > 10 µM
- TGI (SF-295 CNS): > 10 µM
- TGI (SK-OV-3 ovarian): > 10 µM
- TGI (TK-10 renal): > 10 µM

Compound: C=C(c1ccccc1)C1ON(C)CCc2cc(OC)c(OC)cc21 (stereo not drawn)
- TGI (786-0 renal): > 100 µM
- TGI (A498 renal): > 100 µM
- TGI (ACHN renal): > 100 µM
- TGI (CCRF-CEM leukemia): > 100 µM
- TGI (COLO 205 colon): > 100 µM
- TGI (DU-145 prostate): > 100 µM
- TGI (HCT-116 colon): > 100 µM
- TGI (HS 578T breast): > 100 µM
- TGI (LOX IMVI melanoma): > 100 µM
- TGI (MDA-N): > 100 µM
- TGI (NCI-H23 lung): > 100 µM
- TGI (NCI-H460 lung): > 100 µM
- TGI (NCI-H522 lung): > 100 µM
- TGI (NCI/ADR-RES ovarian): > 100 µM
- TGI (RXF 393 renal): > 100 µM
- TGI (SF-268 CNS): > 100 µM
- TGI (SF-295 CNS): > 100 µM
- TGI (SK-OV-3 ovarian): > 100 µM
- TGI (TK-10 renal): > 100 µM
- TGI (UO-31 renal): > 100 µM

Compound: NC(=O)C(Nc1c(Cl)cccc1Cl)c1cc2cc(Br)ccc2nc1Cl (stereo not drawn)
- TGI (786-0 renal): > 100 µM
- TGI (A498 renal): > 100 µM
- TGI (ACHN renal): > 100 µM
- TGI (CCRF-CEM leukemia): > 100 µM
- TGI (COLO 205 colon): > 100 µM
- TGI (DU-145 prostate): > 100 µM
- TGI (HCT-116 colon): > 100 µM
- TGI (HS 578T breast): > 100 µM
- TGI (LOX IMVI melanoma): > 100 µM
- TGI (MDA-N): > 100 µM
- TGI (NCI-H23 lung): > 100 µM
- TGI (NCI-H460 lung): > 100 µM
- TGI (NCI-H522 lung): > 100 µM
- TGI (NCI/ADR-RES ovarian): > 100 µM
- TGI (RXF 393 renal): > 100 µM
- TGI (SF-268 CNS): > 100 µM
- TGI (SF-295 CNS): > 100 µM
- TGI (SK-OV-3 ovarian): > 100 µM
- TGI (TK-10 renal): 96.3 µM
- TGI (UO-31 renal): > 100 µM

Compound: COc1cc(S(=O)(=O)Nc2ccc(-c3csc(N4C(=O)CSC4c4cccs4)n3)cc2)ccc1Cl (stereo not drawn)
- TGI (786-0 renal): > 100 µM
- TGI (A498 renal): > 100 µM
- TGI (ACHN renal): > 100 µM
- TGI (CCRF-CEM leukemia): 95.1 µM
- TGI (COLO 205 colon): > 100 µM
- TGI (DU-145 prostate): 62 µM
- TGI (HCT-116 colon): > 100 µM
- TGI (HS 578T breast): 78.3 µM
- TGI (LOX IMVI melanoma): 36.6 µM
- TGI (MDA-N): 98.2 µM
- TGI (NCI-H23 lung): > 100 µM
- TGI (NCI-H460 lung): 91 µM
- TGI (NCI-H522 lung): 33.9 µM
- TGI (NCI/ADR-RES ovarian): > 100 µM
- TGI (RXF 393 renal): 25.5 µM
- TGI (SF-268 CNS): 40.5 µM
- TGI (SF-295 CNS): > 100 µM
- TGI (SK-OV-3 ovarian): > 100 µM
- TGI (UO-31 renal): > 100 µM

Compound: O=C(O)C1CC2C3CCC2C1C3=O (stereo not drawn)
- TGI (786-0 renal): > 100 µM
- TGI (A498 renal): > 100 µM
- TGI (ACHN renal): > 100 µM
- TGI (CCRF-CEM leukemia): > 100 µM
- TGI (COLO 205 colon): > 100 µM
- TGI (DU-145 prostate): > 100 µM
- TGI (HCT-116 colon): > 100 µM
- TGI (HS 578T breast): > 100 µM
- TGI (LOX IMVI melanoma): > 100 µM
- TGI (MDA-N): > 100 µM
- TGI (NCI-H23 lung): > 100 µM
- TGI (NCI-H460 lung): > 100 µM
- TGI (NCI-H522 lung): > 100 µM
- TGI (NCI/ADR-RES ovarian): > 100 µM
- TGI (RXF 393 renal): > 100 µM
- TGI (SF-268 CNS): > 100 µM
- TGI (SF-295 CNS): > 100 µM
- TGI (SK-OV-3 ovarian): > 100 µM
- TGI (TK-10 renal): > 100 µM
- TGI (UO-31 renal): > 100 µM
